Measured values published in US12492173B2, “Herbicidal substituted N-tetrazolyl aryl carboxamides” (Bayer Aktiengesellschaft, priority 2019, dated 2025).

System: Avena fatua
Assay: Pre-emergence herbicidal action, AVEFA
Format: in vivo
Conditions: comparative experiment, 20 g of a.i./ha
Text: 1. Pre-Emergence Herbicidal Action Against Harmful Plants Seeds of monocotyledonous and dicotyledonous weed plants and crop plants are laid out in sandy loam soil in wood-fiber pots and covered with soil. The compounds of the invention, formulated in the form of wettable powders (WP) or as emulsion concentrates (EC), are then applied to the surface of the covering soil in the form of an aqueous suspension or emulsion at a water application rate equating to 600 to 800 l/ha, with addition of 0.2% wetting agent. After the treatment, the pots are placed in a greenhouse and kept under good growth conditions for the trial plants. The damage to the test plants is scored visually after a test period of 3 weeks by comparison with untreated controls (herbicidal activity in percent (%): 100% activity=the plants have died, 0% activity=like control plants). […] The tables below illustrate, in an exemplary manner, the post-emergence herbicidal action of the compounds according to the invention, the herbicidal activity being stated in percent. [table] In the experiments that follow, herbicidal action of numerous inventive compounds and the known compounds that are structurally closest from D1 (WO 2012/028579 A1) and D2 (WO 2018/202535 A1) were compared under the above-specified conditions by the pre-emergence and post-emergence method. […]

CSCc1c(C(F)F)ccc(C(=O)Nc2nnnn2C)c1Cl [Example 1-320]
Herbicidal action against AVEFA: 70
